Laboratory results: patent EP0320984A2, “1,4-Dihydropyridine derivatives” (FUJIREBIO INC., priority 1987, dated 1989)

How the values were obtained:
Thoracic aortas = assay: Inhibitory activity on KCl-induced contraction of aorta (helical strips of thoracic aorta); design: species or system male rabbits; conditions: 10^-6M, 60min after addition; 30 mM KCl, rabbit aorta strips, 37°C
Procedure: 2. Experiment for inhibitory activity on KCl-induced contraction of aorta: Thoracic aortas were isolated from male rabbits and cut into helical strips. The preparations were mounted vertically in organ baths containing 30 ml of Krebs- Henseleit solution. […] Test and reference compounds were added to the bath 30 minutes after KCl treatment.

[1] = system: Rabbit platelet rich plasma (PRP); assay: Inhibitory activity on platelet aggregation in rabbit platelet rich plasma (light transmission); type: cell-based; conditions: added to PRP 30 minutes before agent; for Inhibitory activity on platelet aggregation, ADP / Inhibitory activity on platelet aggregation, AA / Inhibitory activity on platelet aggregation, Collagen: compound 10^-4 (unit not given); for Inhibitory activity on platelet aggregation, ADP: Adenosine diphosphate (ADP) 5 mM; for Inhibitory activity on platelet aggregation, AA: Arachidonic acid (AA) 1 mM; for Inhibitory activity on platelet aggregation, Collagen: aggregating agent collagen; for Inhibitory activity on platelet aggregation, PAF: compound 3x10^-6 (unit not given), Platelet activating factor (PAF) 10 mg/ml
Procedure: 3. Experiment for inhibitory activity on platelet aggregation in rabbit:
Rabbit platelet rich plasma (PRP) was prepared by centrifugation of the citrated blood at 380 g for 10 minutes at 20°C. Test solution (10 µl) was added to PRP (200 µl) 30 minutes before treatment of aggregation agents (10 µl). The extent of aggregation was expressed with the maximum change in light transmission for PRP and platelet poor plasma was taken as a value of 100%

Row | SMILES | Inhibitory effect on KCl-induced contraction (Thoracic aortas) [%] | Inhibitory activity on platelet aggregation, ADP [1] [%] | Inhibitory activity on platelet aggregation, AA [1] [%] | Inhibitory activity on platelet aggregation, Collagen [1] [%] | Inhibitory activity on platelet aggregation, PAF [1] [%]
1 | COC(=O)C1=C(C)NC(C)=C(C(=O)OC)C1c1ccccc1[N+](=O)[O-] [NIFEDIPINE, 1,4-dihydro-2,6-dimethyl-4-(2-nitrophenyl)pyridine-3,5-dicarboxylic acid dimethyl ester, reference compound] | 87.6 | 0 | 0.2 | 5.1 | 
2 | COC(=O)C1=C(C)NC(C)=C(C(=O)OC/C=C/c2ccc(C(C)n3ccnc3)cc2)C1c1cccc([N+](=O)[O-])c1 (centres unmarked) [Example 24, (E)-3-{4-{1-(1-imidazolyl)ethyl}phenyl}-2-propen-1-yl methyl 1,4-dihydro-2,6-dimethyl-4-(3-nitrophenyl)pyridine-3,5-dicarboxylate] | 74.3 | 7.8 | 28.2 | 27.5 | 18.3
3 | C/C=C/C=C/COC(=O)C1=C(C)NC(C)=C(C(=O)OC/C=C/c2ccc(Cn3ccnc3)cc2)C1c1cccc([N+](=O)[O-])c1 (centres unmarked) [Example 15, (E)-2,(E)-4-hexadien-1-yl (E)-3-{4-(1-imidazolylmethyl)phenyl}2-propen-1-yl 1,4-dihydro-2,6-dimethyl-4-(3-nitrophenyl)pyridine-3,5-dicarboxylate] | 21.6 | 8.8 | 30.2 | 10.5 | 74.1
4 | COC(=O)C1=C(C)NC(C)=C(C(=O)OCCN(C)Cc2ccccc2)C1c1cccc([N+](=O)[O-])c1.Cl (centres unmarked) [NICARDIPINE, 1,4-dihydro-2,6-dimethyl-4-(3-nitrophenyl)pyridine-3,5-dicarboxylic acid-3-[2-(N-benzyl-N-methylamino)ethyl]ester-5-methyl ester hydrochloride, reference compound] | 91.1 | 6.9 |  | 3.6 | 
5 | COC(=O)C1=C(C)NC(C)=C(C(=O)OC/C=C/c2ccc(Cn3ccnc3)cc2)C1c1cccc(Cl)c1Cl (centres unmarked) [Example 12, (E)-3-{4-(1-imidazolylmethyl)phenyl}-2-propen-1-yl methyl 1,4-dihydro-2,6-dimethyl-4-(2,3-dichlorophenyl)pyridine-3,5-dicarboxylate] |  | 7.3 | 11.4 | 10.3 | 51.8
6 | COC(=O)C1=C(C)NC(C)=C(C(=O)OC/C=C/c2ccc(-n3ccnc3)cc2)C1c1cccc([N+](=O)[O-])c1 (centres unmarked) [Example 3, (E)-3-{4-(1-imidazolyl)phenyl}-2-propen-1-yl methyl 1,4-dihydro-2,6-dimethyl-4-(3-nitrophenyl)pylidine-3,5-dicarboxylate] |  | 2.2 | 19.3 | 33.2 | 0
7 | COC(=O)C1=C(C)NC(C)=C(C(=O)OC/C=C/c2ccc(Cn3ccnc3)o2)C1c1cccc([N+](=O)[O-])c1 (centres unmarked) [Example 4, (E)-3-{5-(1-imidazolylmethyl)-2-furan}-2-propen-1-yl methyl 1,4-dihydro-2,6-dimethyl-4-(3-nitrophenyl)pyridine-3,5-dicarboxylate] |  |  | 30.8 | 30.5 | 95.6
8 | COCCOC(=O)C1=C(C)NC(C)=C(C(=O)OC/C=C/c2ccc(Cn3ccnc3)cc2)C1c1cccc([N+](=O)[O-])c1 (centres unmarked) [Example 16, (E)-3-{4-(1-imidazolylmethyl)phenyl}-2-propen-1-yl 2-methoxyethyl 1,4-dihydro-2,6-dimethyl-4-(3-nitrophenyl)pyridine-3,5-dicarboxylate] |  | 7.1 | 33.7 | 24.7 | 42.4
9 | COC(=O)C1=C(C)NC(C)=C(C(=O)OC/C=C/c2cccc(Cn3ccnc3)c2)C1c1cccc([N+](=O)[O-])c1 (centres unmarked) [Example 21, (E)-3-{3-(1-imidazolylmethyl)phenyl}-2-propen-1-yl methyl 1,4-dihydro-2,6-dimethyl-4-(3-nitrophenyl)pyridine-3,5-dicarboxylate] |  | 17.3 | 37.6 | 29.5 | 25.4
10 | COC(=O)C1=C(C)NC(C)=C(C(=O)OC/C(F)=C/c2ccc(Cn3ccnc3)cc2)C1c1cccc([N+](=O)[O-])c1 (centres unmarked) [Example 13, (Z)-3-{4-(1-imidazolylmethyl)phenyl}-2-fluoro-2-propen-1-yl methyl 1,4-dihydro-2,6-dimethyl-4-(3-nitrophenyl)pyridine-3,5-dicarboxylate] |  | 10.9 | 17.4 | 6.3 | 49.6
11 | COC(=O)C1=C(C)NC(C)=C(C(=O)OC/C=C/C=C/c2ccc(Cn3ccnc3)cc2)C1c1cccc([N+](=O)[O-])c1 (centres unmarked) [Example 19, 5-{4-(1-imidazolylmethyl)phenyl}-(E)-2,(E)-4-pentadien-1-yl methyl 1,4-dihydro-2,6-dimethyl-4-(3-nitrophenyl)pyridine-3,5-dicarboxylate] | 68.8 | 17.2 | 35.5 | 66.3 | 41.5
12 | COC(=O)C1=C(C)NC(C)=C(C(=O)OC/C=C/c2ccc(Cn3ccnc3)cc2)C1c1ccccc1C#N (centres unmarked) [Example 18, (E)-3-{4-(1-imidazolylmethyl)phenyl}-2-propen-1-yl methyl 1,4-dihydro-2,6-dimethyl-4-(2-cyanophenyl)pyridine-3,5-dicarboxylate] |  | 8.8 | 30.4 | 61.8 | 48.6
13 | COC(=O)C1=C(C)NC(C)=C(C(=O)OC/C(C)=C/c2ccc(Cn3ccnc3)cc2)C1c1cccc([N+](=O)[O-])c1 (centres unmarked) [Example 8, (E)-3-{4-(1-imidazolylmethyl)phenyl}-2-methyl-2-propen-1-yl methyl 1,4-dihydro-2,6-dimethyl-4-(3-nitro-phenyl)pyridine-3,5-dicarboxylate] |  | 10.8 | 18.8 | 18.9 | 28.9
